# Where no end group is shown, it is not given here.
# Experiments:
# [1] = test system: beagle dogs; experiment: ELISA antibody titers in sera of immunized beagle dogs; type: in vivo, dog; conditions: for antibody titers in sera (words): beagle dogs, 1.0, 1.5, 3.0 mg with nor-MDP and ISA 720, ELISA
# Method: In brief, the beagle dogs were purchased from Covance Research Products (Cumberland, VA, USA) and were housed in the Ohio State University Veterinarian Facility Institutional Animal Care Facility. The dogs were housed at 19°C−24°C room temperature with approximately 70% humidity, and 12 h light and 12 h dark–light cycle. The dogs’ body weights were at least 7.5 kg when they received the first immunization. […] The dogs received a total of 4 doses, immunization was done at the rear thigh with two sites of injections, the bleed was collected as indicated time points to monitor the antibody titers, and the body weight of each dog was monitored closely (see Figures 3B, C for detail).
# Enzyme-linked immunosorbent assay (ELISA) was performed per our lab standard procedure. Briefly, a 96-well plate was coated with 100 μl of MVF-PD-1(92-110) peptide as an antigen at 2 μg/ml in phosphate-buffered saline (PBS; Research Products International, Mt Prospect, IL, USA, CAS No. 7647-145) overnight at 4°C. Nonspecific binding sites were blocked for 1 h with 200 μl of PBS with 1% BSA (bovine serum albumin; Thermo Fisher Scientific, Waltham, […], USA, BP9703-100), and the plate was washed with a washing buffer (PBS diluted 0.05% Tween 1% horse serum). […] After washing, the antibody was detected using 50 μl of 0.15% H2O2 in 24 mM of citric acid and 5 mM of the sodium phosphate buffer (pH5.2) with 0.5 mg/ml 2, […] (3-ethylbenzthiazole- 6-sulfonic acid, ABTS; Sigma, St. Louis, MO, USA) as the chromophore. […] Absorbance was read at 415 nm using an ELISA microplate reader (SPECTRAmax PLUS384; Molecular Devices, San Jose, CA, USA). The highest dilution at the cutoff absorbance 0.2 were determined as the antibody titer.
# This study was designed to monitor the kinetics of how quickly the antibody levels to MVF-PD-1(92-110) diminished after the dosing was stopped. […] We monitored the beagle dogs’ body weight closely during the immunization period ( Figure 3C ).
# [2] = test system: cynomolgus monkeys; experiment: ELISA antibody titers, monkey study No.00213519; type: in vivo, Macaca fascicularis; conditions: monkey 2nd set, 25, 100, 250 µg on days 1, 15, 29, 43, serum days 29, 43, 57, APi2568 as capture
# Method: The non-human primate studies were carried out by the Charles River Laboratories (Ashland, OH USA). All the cynomolgus monkeys (Macaca fascicularis of Chinese origin) were obtained from Charles River Laboratories (Houston, TX, USA). In brief, the animals were approximately 2–4 years old and at the body weight between 2.2 and 3.1 kg at the initial dosing. The animals were kept at the temperature between 19°C and 24°C, humidity 30%–70%, and with 12 h light and 12 h dark light cycle. The Good manufacturing practice (GMP)-manufactured vaccine was used in the non-human primate study. […] Similar to mouse and dog dosing preparation, after the emulsion was prepared, a drop test was performed on each time of dosing to confirm that the emulsion had been prepared properly. […] All the animals’ body weights were monitored weekly after receiving. […]
# Enzyme-linked immunosorbent assay (ELISA) was performed per our lab standard procedure. […] After washing, the antibody was detected using 50 μl of 0.15% H2O2 in 24 mM of citric acid and 5 mM of the sodium phosphate buffer (pH5.2) with 0.5 mg/ml 2, […] (3-ethylbenzthiazole- 6-sulfonic acid, ABTS; Sigma, St. Louis, MO, USA) as the chromophore. […] Absorbance was read at 415 nm using an ELISA microplate reader (SPECTRAmax PLUS384; Molecular Devices, San Jose, CA, USA). The highest dilution at the cutoff absorbance 0.2 were determined as the antibody titer. […]
# [3] = test system: BALB/c mice; experiment: Observation for autoimmune symptoms in immunized mice; type: in vivo, mouse
# Excerpt: The common autoimmune symptoms are identified as follows: skin rashes, low-grade fever, achy muscles, fatigue, hair loss, trouble concentrating, and so on. […] For the dogs, the high volume of ISA 720 caused a lesion near the injection site that might result in mild swelling, but the symptoms were resolved weeks after. The immunized monkeys had some swelling at or near the site of IM injection, especially after the second or third dose and more frequent in females than males. In all the clinical observations, these animals either had recovered or were in the process of recovering. Despite these adverse clinical findings, all of them were active and in good condition throughout the project. Overall, there were no observable signs or uncontrolled autoimmune symptoms.
sequence,measurement,setting,value
KLLSLIKGVIVHRLEGVEGPSLGAISLAPKAQIKESLRAEL [MVF-PD-1(92-110)],antibody titers in sera (words),[1],high titer antibody
same,antibody titers in sera (words),[1]; listed as PD-1(92),high immunogenicity
same,antibody titers after dosing stopped and after re-challenge,"[1]; beagle dogs, 4Y boost 6 months after primary immunization",dropped to very low levels in the absence of dosing but could be recovered if the dog was re-challenged with vaccine
same,anti-APi2568 antibody titers / immunogenicity (summary),[2]; listed as APi2568,high and were relatively uniform across sample collection days and between the APi2568 dose groups
same,anti-APi2568 antibody titers / immunogenicity (summary),[2]; listed as PD-1(92),high immunogenicity
same,induction of autoimmune responses,[3],has not been observed
